Test results reported in PMC6467700 (Journal of medicinal chemistry, 2019).
Read-outs that look alike come from different tables or passages of the source.

How the values were obtained:
MOR [1] = molecular target: T1, MOR (Mus musculus, UniProt P42866); assay: Competition radioligand binding at the MOR; details: [3H]naloxone, CHO cells expressing mouse MOR
MOR [2] = molecular target: T1, MOR; details: cited from earlier work
MOR [3] = details: peripherally selective MOR antagonist; cited from earlier work
KOR [4] = molecular target: T2, KOR (Mus musculus, UniProt P33534); details: ref 57a, cited from earlier work
T2 sequence (P33534 whole entry): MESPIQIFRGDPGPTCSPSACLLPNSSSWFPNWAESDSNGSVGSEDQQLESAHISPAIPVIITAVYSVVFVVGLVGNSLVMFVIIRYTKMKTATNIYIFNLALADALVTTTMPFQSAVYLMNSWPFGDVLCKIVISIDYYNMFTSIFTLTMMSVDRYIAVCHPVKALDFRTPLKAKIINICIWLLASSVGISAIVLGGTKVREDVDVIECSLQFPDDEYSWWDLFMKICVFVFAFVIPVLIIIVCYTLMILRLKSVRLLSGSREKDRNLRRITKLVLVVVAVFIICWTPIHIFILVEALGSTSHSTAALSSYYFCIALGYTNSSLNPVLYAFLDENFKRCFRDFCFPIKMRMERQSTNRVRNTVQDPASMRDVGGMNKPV

MOR [5] = molecular target: T1, MOR; details: read-out: Ki (nM) MOR; ref 57a; cited from earlier work
DOR = DOR (Mus musculus, UniProt P32300); details: ref 57a, cited from earlier work
DOR, sequence (P32300 whole entry): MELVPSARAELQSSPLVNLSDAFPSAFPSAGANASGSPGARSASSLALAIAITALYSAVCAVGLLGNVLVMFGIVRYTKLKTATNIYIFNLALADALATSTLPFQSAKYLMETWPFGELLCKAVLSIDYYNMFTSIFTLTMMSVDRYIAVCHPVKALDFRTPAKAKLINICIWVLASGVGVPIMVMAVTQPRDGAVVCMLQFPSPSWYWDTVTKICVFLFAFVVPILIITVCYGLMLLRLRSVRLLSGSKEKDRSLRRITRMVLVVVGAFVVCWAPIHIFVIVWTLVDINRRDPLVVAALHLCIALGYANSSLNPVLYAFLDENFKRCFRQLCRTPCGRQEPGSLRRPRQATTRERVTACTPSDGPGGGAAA

KOR [6] = molecular target: T2, KOR; details: read-out: Ki,κ; 50a; cited from earlier work

T1 sequence (P42866 whole entry): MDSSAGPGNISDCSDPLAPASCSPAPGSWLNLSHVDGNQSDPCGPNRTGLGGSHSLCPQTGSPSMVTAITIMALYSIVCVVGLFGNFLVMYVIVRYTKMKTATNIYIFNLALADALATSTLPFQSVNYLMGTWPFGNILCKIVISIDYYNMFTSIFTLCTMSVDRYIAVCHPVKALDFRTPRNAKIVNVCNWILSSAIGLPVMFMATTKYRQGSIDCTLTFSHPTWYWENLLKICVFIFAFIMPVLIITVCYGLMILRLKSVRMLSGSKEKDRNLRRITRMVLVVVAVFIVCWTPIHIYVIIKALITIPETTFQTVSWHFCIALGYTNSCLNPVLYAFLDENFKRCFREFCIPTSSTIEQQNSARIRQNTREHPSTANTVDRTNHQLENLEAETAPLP

## COC(=O)c1cnccc1C(=O)N[C@@H]1CC[C@@]2(O)[C@H]3Cc4ccc(O)c5c4[C@@]2(CCN3CC2CC2)[C@H]1O5 [Compound 6, 17-Cyclopropylmethyl-3,14β-dihydroxy-4,5α-epoxy-6β-[(3′-methylformate-4′-pyridyl)acetamido]morphinan]
MOR [1]
  Ki (nM) MOR: nanomolar binding affinity

## O=C(N[C@@H]1CC[C@@]2(O)[C@H]3Cc4ccc(O)c5c4[C@@]2(CCN3CC2CC2)[C@H]1O5)c1ccncc1 [NAP, 17-cyclopropylmethyl-3,14β-dihydroxy-4,5α-epoxy-6β-(4′-pyridylcarboxamido)-morphinan]
MOR [2]; ref 44a
  MOR [35S]GTPγS Binding % Emax of DAMGO: 22.72 ± 0.84%
MOR [3]
  ED50: 8.8 µg/kg

## Cc1cnccc1C(=O)N[C@@H]1CC[C@@]2(O)[C@H]3Cc4ccc(O)c5c4[C@@]2(CCN3CC2CC2)[C@H]1O5 [NMP, 17-cyclopropylmethyl-3,14β-dihydroxy-4,5α-epoxy-6β-{[4′-(3′-methylpyridyl)]carboxamido}morphinan]
KOR [4]; read-out: Ki (nM) KOR
  Ki: 96.7 ± 12.2 nM
KOR [4]
  Selectivity κ/μ: 166
MOR [5]
  Ki: 0.58 ± 0.25 nM
MOR [2]; read-out: MOR [35S]GTPγS Binding EC50, ref 57a
  EC50: 1.52 ± 0.26 nM
MOR [2]; ref 57a
  MOR [35S]GTPγS Binding % Emax of DAMGO: 30.63 ± 0.55%
DOR; read-out: Ki (nM) DOR
  Ki: 273.6 ± 1.8 nM
DOR
  Selectivity δ/μ: 470

## Oc1ccc2c3c1O[C@H]1c4[nH]c5c(c4C[C@@]4(O)[C@@H](C2)N(CC2CC2)CC[C@]314)C[C@@]1(O)[C@H]2Cc3ccc(O)c4c3[C@@]1(CCN2CC1CC1)[C@H]5O4 [norBNI]
KOR [6]
  Ki: 1.8 nM
